Experimental data from patent US20240366526A1, “COMPOSITIONS AND METHODS FOR MAINTAINING OR ENHANCING MICROBIAL BALANCE OF THE SKIN AND MUCOSA” (Reckitt Benckiser Health Limited, priority 2023, published 2024).

How the values were obtained:
Test in all cases: MIC determination (EUCAST / ISO 20776 microdilution)
Assay type in all cases: cell-based
[1] = system: Lactobacillus crispatus LF6
Method: (§1) Sequential dilutions (1:2) were prepared in a sterile 96 wells plate with culture medium. All preparations were performed in aseptic conditions. For each of the ingredients tested, 8 concentrations were tested. […] De Man, Rogosa and Sharpe Broth (MRSB) media was used for growth of Lactobacillus spp., New York City III Broth ([…]) media and Roswell Park Memorial Institute 1640 (RPMI-1640) media was used respectively to grow Gardnerella vaginalis and Candida albicans. […] After homogenization of the working microbial suspension with dilutions of the two ingredients, the 96-well plates were incubated according to the incubation conditions suitable for each microorganism. For, L. crispatus and L. gasseri, incubation was done at 37° C. for 24 and 48h in microaerophilic atmosphere. […] After incubation, the wells were evaluated macroscopically to check for microorganism growth. Turbid wells indicated the presence of microbial growth, and clear wells indicated the absence of microbial growth. The lowest concentration tested in which wells without turbidity, correspondent to the minimum inhibitory concentration (MIC). To validate the test, three negative controls (sterility control of the culture medium; study substance dilutions with culture medium; emulsifier with culture medium) and two positive controls (growth control for each microorganism using culture media and growth control for each microorganism using emulsifier with culture media) were performed.

[2] = system: Lactobacillus gasseri LF7
Method: as §1

Candida albicans LF1 = system: Candida albicans LF1
Method: as §1

[3] = system: Gardnerella vaginalis LF1; conditions: clinical vaginal isolate; 37° C., microaerophilic, 24 and 48 h; single substance
Source text: The strains used were Lactobacillus crispatus LF6 and Lactobacillus gasseri LF7), one strain of Gardnerella vaginalis LF1 and one strain of Candida albicans LF, that correspond to clinical isolates collected from women vaginal cavity. The antimicrobial activity method was based on the current standards described by EUCAST (European Committee on Antimicrobial Susceptibility Testing) and ISO 20776-1 (2006) and ISO 20776-2-(2007) for determining the minimum inhibitory concentration (MIC). Terpinen-4-ol and Carvacrol were emulsified with DMSO (up to 1% (v/v)) in culture medium to obtain a concentration corresponding to 2× higher than the testing one. Sequential dilutions (1:2) were prepared in a sterile 96 wells plate with culture medium. […]
In parallel, calibrated suspensions of microorganisms were prepared with a cell density of 1.0 on the McFarland scale (Lactobacillus spp. and Candida albicans) and 0.13 absorbance (Gardnerella vaginalis), corresponding to 1×10^8 CFU/mL for bacteria (Lactobacillus spp. and Gardnerella vaginalis) and 1×10^6 CFU/mL for yeast (Candida albicans). […]
After homogenization of the working microbial suspension with dilutions of the two ingredients, the 96-well plates were incubated according to the incubation conditions suitable for each microorganism. […] After incubation, the wells were evaluated macroscopically to check for microorganism growth. […]

[4] = terpinen-4-ol 2.5 μl/ml and 5 μl/ml

SMILES | effect on Lactobacillus crispatus growth ([1]; carvacrol 0.31 μl/ml) | effect on Lactobacillus gasseri growth ([2]; carvacrol 0.31 μl/ml) | inhibition for C. albicans LF1 (Candida albicans LF1; carvacrol 0.31 μl/ml) | MIC for Gardenella vaginalis LF1 [3] | effect on Lactobacillus crispatus growth [1, 4] | effect on Lactobacillus gasseri growth [2, 4] | MIC for C. albicans LF1 (Candida albicans LF1; clinical vaginal isolate, 32.5° C., aerophilic, 24 and 48 h, single substance)
Cc1ccc(C(C)C)cc1O [Carvacrol, carvacrol] | unaffected | unaffected | 50% | 0.31 μl/ml | – | – | –
CC1=CCC(O)(C(C)C)CC1 (centres unmarked) [Terpinen-4-ol] | – | – | – | 2.5 μl/ml | unaffected | unaffected | 5 μl/ml
